This assay deals with 72 kDa type IV collagenase (Homo sapiens, UniProt P08253). The assay can be described thus: Inhibition of recombinant MMP2.

The term IC50 denotes the concentration that gives 50% inhibition.

72 kDa type IV collagenase, sequence (P08253 whole entry): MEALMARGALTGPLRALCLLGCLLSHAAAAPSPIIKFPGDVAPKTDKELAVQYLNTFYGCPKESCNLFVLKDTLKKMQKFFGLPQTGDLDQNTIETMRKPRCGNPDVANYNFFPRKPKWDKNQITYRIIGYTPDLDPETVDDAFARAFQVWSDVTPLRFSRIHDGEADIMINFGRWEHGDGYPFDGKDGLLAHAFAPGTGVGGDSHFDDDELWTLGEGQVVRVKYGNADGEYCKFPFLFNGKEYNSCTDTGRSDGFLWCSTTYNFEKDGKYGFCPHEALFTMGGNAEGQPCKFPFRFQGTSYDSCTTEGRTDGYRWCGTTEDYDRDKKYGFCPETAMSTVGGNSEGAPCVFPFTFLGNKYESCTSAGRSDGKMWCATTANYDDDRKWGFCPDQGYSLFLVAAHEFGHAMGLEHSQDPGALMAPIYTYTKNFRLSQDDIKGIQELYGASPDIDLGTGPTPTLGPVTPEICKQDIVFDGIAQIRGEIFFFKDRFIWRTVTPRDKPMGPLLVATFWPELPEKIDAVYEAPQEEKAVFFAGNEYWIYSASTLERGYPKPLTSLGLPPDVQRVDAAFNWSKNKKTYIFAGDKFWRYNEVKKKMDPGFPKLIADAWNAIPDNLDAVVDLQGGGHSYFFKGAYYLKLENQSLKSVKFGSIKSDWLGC

`CCCCCCC(O)CCCCCCCCCCCOS(=O)(=O)O` (stereo unspecified): the IC50 was 23.2 µM.

For the origin of these results see ChEMBL document CHEMBL1150172, “Sodium 1-(12-hydroxy)octadecanyl sulfate, an MMP2 inhibitor, isolated from a tunicate of the family Polyclinidae” (J Nat Prod, 2002).
